Assay results published in ChEMBL document CHEMBL1949526, “Cyclic hydroxyamidines as amide isosteres: discovery of oxadiazolines and oxadiazines as potent and highly efficacious γ-secretase modulators in vivo” (J Med Chem, 2012).
One block for each molecule: values may come before it. Activity calls are given as the source filed them. The rule behind the calls is not given here.

Tests used:
[1] = Permeability from apical to basolateral side of human Caco2 cells; format: ADME, cell-based; conditions: Caco-2, read-out: permeability
[2] = system: Rattus norvegicus; assay: Antialzheimer activity in rat assessed as reduction in amyloid beta42 level in cortex at 30 mg/kg, po; format: functional; parameters: scale not given: the % may be the effect or the level left
[3] = system: Rattus norvegicus; assay: Antialzheimer activity in rat assessed as reduction in amyloid beta42 level in CSF at 30 mg/kg, po; format: functional; parameters: scale not given: the % may be the effect or the level left
[4] = target: Voltage-gated inwardly rectifying potassium channel KCNH2 (Homo sapiens, UniProt Q12809); assay: Inhibition of human ERG by cell based voltage clamp assay
Chain of Voltage-gated inwardly rectifying potassium channel KCNH2 (Q12809 whole entry): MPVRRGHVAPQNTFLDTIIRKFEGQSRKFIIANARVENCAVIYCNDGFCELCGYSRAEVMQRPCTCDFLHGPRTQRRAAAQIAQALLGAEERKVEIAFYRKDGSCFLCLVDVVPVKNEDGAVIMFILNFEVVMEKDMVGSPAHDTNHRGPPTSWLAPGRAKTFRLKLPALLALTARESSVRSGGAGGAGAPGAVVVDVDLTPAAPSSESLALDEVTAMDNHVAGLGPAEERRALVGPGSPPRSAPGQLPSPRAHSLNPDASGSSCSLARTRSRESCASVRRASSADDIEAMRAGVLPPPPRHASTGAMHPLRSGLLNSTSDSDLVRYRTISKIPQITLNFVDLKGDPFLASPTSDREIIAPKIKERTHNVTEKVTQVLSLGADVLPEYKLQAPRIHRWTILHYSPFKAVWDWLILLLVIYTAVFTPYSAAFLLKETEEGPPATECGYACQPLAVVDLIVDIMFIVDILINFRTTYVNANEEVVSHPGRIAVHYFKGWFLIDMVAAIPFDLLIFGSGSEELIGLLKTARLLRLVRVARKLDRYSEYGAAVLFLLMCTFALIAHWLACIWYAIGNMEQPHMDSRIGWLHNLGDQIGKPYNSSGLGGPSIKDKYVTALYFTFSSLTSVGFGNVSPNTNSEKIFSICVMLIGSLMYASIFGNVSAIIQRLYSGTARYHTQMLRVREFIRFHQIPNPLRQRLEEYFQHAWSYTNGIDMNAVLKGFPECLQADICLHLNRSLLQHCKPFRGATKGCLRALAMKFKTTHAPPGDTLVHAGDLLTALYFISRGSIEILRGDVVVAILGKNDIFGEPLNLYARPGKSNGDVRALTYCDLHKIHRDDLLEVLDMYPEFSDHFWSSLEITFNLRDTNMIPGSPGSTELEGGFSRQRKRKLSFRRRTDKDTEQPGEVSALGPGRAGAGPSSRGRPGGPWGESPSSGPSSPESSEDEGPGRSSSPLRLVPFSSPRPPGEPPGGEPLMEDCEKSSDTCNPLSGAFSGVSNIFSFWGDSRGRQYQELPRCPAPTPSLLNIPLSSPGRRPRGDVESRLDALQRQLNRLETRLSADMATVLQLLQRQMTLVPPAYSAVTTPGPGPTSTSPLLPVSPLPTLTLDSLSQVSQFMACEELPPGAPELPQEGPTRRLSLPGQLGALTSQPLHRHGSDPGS

[5] = species: Canis familiaris; assay: Cardiotoxicity in dog assessed as effect on electrocardiographic QTc interval at compound concentration required for pharmacological effect; format: toxicity, organism-based, Canis lupus familiaris; conditions: in vivo
[6] = Chemical stability of the compound in aqueous 0.1 N HCl/MeOH (1:1) assessed as deterioration of enantiomaric excess after 7 days; format: physicochemical; conditions: buffer, 168 h
[7] = Dissociation constant, pKa of the compound; format: physicochemical
[8] = target: Gamma-secretase; assay: Modulation of gamma-secretase-mediated cleavage of human APP Swedish and London mutation expressed in HEK293 cells assessed as inhibition of amyloid beta42 production after 5 hrs by sandwich immunoassay; format: cell-based
[9] = target: Gamma-secretase; assay: Modulation of gamma-secretase-mediated cleavage of human APP Swedish and London mutation expressed in HEK293 cells assessed as reduction of total amyloid beta level after 5 hrs by sandwich immunoassay; format: cell-based
[10] = system: Rattus norvegicus; assay: Antialzheimer activity in po dosed CD rat assessed as reduction in amyloid beta42 level in cortex after 3 hrs by alphaLISA analysis relative to amyloid beta40 level; format: functional, organism-based
[11] = target: T1, Gamma-secretase (Homo sapiens) (UniProt Q96BI3+Q9NZ42+Q8WW43+P49768+Q92542+P49810); assay: Modulation of gamma-secretase-mediated cleavage of human APP Swedish and London mutation expressed in HEK293 cells assessed as increase in amyloid beta38 production at 10 uM by SELDI-MS analysis; format: cell-based
[12] = system: Rattus norvegicus; assay: Antialzheimer activity in po dosed CD rat assessed as reduction in amyloid beta42 level in plasma after 3 hrs by alphaLISA analysis relative to amyloid beta40 level; format: functional, organism-based
[13] = system: Rattus norvegicus; assay: Antialzheimer activity in po dosed CD rat assessed as reduction in amyloid beta42 level in cortex after 3 hrs by alphaLISA analysis relative to total amyloid beta level; format: functional, organism-based
[14] = system: Rattus norvegicus; assay: Antialzheimer activity in po dosed CD rat assessed as reduction in amyloid beta42 level in plasma after 3 hrs by alphaLISA analysis relative to total amyloid beta level; format: functional, organism-based
[15] = system: Rattus norvegicus; assay: Antialzheimer activity in CD rat assessed as reduction in amyloid beta42 level in cortex administered as po for 6 days by alphaLISA analysis relative to total amyloid beta level; format: functional, organism-based
[16] = target: T1, Gamma-secretase (Homo sapiens); assay: Modulation of gamma-secretase-mediated cleavage of human APP Swedish and London mutation expressed in HEK293 cells assessed as inhibition of amyloid beta40 production at 10 uM by SELDI-MS analysis; format: cell-based
[17] = system: Rattus norvegicus; assay: Antialzheimer activity in CD rat assessed as reduction in amyloid beta42 level in CSF administered as po for 6 days by alphaLISA analysis relative to total amyloid beta level; format: functional, organism-based
[18] = target: T1, Gamma-secretase (Homo sapiens); assay: Modulation of gamma-secretase-mediated cleavage of human APP Swedish and London mutation expressed in HEK293 cells assessed as increase in amyloid beta37 production at 10 uM by SELDI-MS analysis; format: cell-based
[19] = system: Rattus norvegicus; assay: Antialzheimer activity in CD rat assessed as reduction in amyloid beta42 level in plasma administered as po for 6 days by alphaLISA analysis relative to total amyloid beta level; format: functional, organism-based
[20] = target: T1, Gamma-secretase (Homo sapiens); assay: Modulation of gamma-secretase-mediated cleavage of human APP Swedish and London mutation expressed in HEK293 cells assessed as inhibition of amyloid beta42 production at 10 uM by SELDI-MS analysis; format: cell-based
[21] = system: Rattus norvegicus; assay: Antialzheimer activity in CD rat assessed as reduction in amyloid beta42 level in plasma administered as po for 6 days by alphaLISA analysis relative to total amyloid beta40 level; format: functional, organism-based
[22] = system: Rattus norvegicus; assay: Antialzheimer activity in po dosed CD rat assessed as reduction in amyloid beta42 level in CSF after 3 hrs by alphaLISA analysis relative to amyloid beta40 level; format: functional, organism-based
[23] = target: T1, Gamma-secretase (Homo sapiens); assay: Modulation of gamma-secretase-mediated cleavage of human APP Swedish and London mutation expressed in HEK293 cells assessed as inhibition of amyloid beta39 production at 10 uM by SELDI-MS analysis; format: cell-based
[24] = system: Rattus norvegicus; assay: Antialzheimer activity in CD rat assessed as reduction in amyloid beta42 level in cortex administered as po for 6 days by alphaLISA analysis relative to total amyloid beta40 level; format: functional, organism-based
[25] = system: Rattus norvegicus; assay: Antialzheimer activity in po dosed CD rat assessed as reduction in amyloid beta42 level in CSF after 3 hrs by alphaLISA analysis relative to total amyloid beta level; format: functional, organism-based
[26] = system: Rattus norvegicus; assay: Antialzheimer activity in CD rat assessed as reduction in amyloid beta42 level in CSF administered as po for 6 days by alphaLISA analysis relative to total amyloid beta40 level; format: functional, organism-based

- Papp A→B [1]: 57.9 ×10⁻⁶ cm/s
SMILES: COc1cc(/C=C2\CCCN([C@@H](C)c3ccc(F)cc3)C2=O)ccc1-n1cnc(C)c1
- Activity [2]: 44%
- Activity [3]: 55%
- IC50 [4]: 1.2 µM
- Activity [5]: Non-toxic

- Stability [6]: Stable
- pKa [7]: 5.8
- IC50 [8]: 7.64 µM
- IC50 [9]: > 20 µM
SMILES: COc1cc(/C=C2\CCCN3C2=NO[C@@]3(CO)c2ccc(F)cc2)ccc1-n1cnc(C)c1

- Activity [11]: Active
- Activity [16]: Active
- Activity [18]: Active
- Activity [20]: Active
- Activity [23]: Active
SMILES: COc1cc(/C=C2\CCCN3C2=NOC[C@@H]3c2cc(F)c(F)c(F)c2)ccc1-n1cnc(C)c1
- Activity [10]: Dose-dependent effect
- Activity [12]: Dose-dependent effect
- Activity [13]: Dose-dependent effect
- Activity [14]: Dose-dependent effect
- Activity [15]: Dose-dependent effect
- Activity [17]: Dose-dependent effect
- Activity [19]: Dose-dependent effect
- Activity [21]: Dose-dependent effect
- Activity [22]: Dose-dependent effect
- Activity [24]: Dose-dependent effect
- Activity [25]: Dose-dependent effect
- Activity [26]: Dose-dependent effect
